In patent US11186564B2, “Dual NAV1.2/5HT2a inhibitors for treating CNS disorders” (Sunovion Pharmaceuticals Inc., priority 2016, dated 2021) one finds IC50 and inhibition data, which are given here for 27 compounds.

Test [1] concerns the target human sodium channel NaV1.2 (Homo sapiens, UniProt Q99250). Description: NaV1.2 inhibition, automated patch-clamp (Q-Patch HTX), slow inactivated state (state C). The class given is cell-based. To be noted: for inhibition at 1 µM: 1 μM compound, read-out: NaV1.2 (% inh), 1 μM; for inhibition at 10 µM: 10 μM compound, read-out: NaV1.2 (% inh), 10 μM; for IC50: reference compound. The text has this: In vitro method for NaV1.2 inhibition assays: The methods utilized to assess the inhibitory activity of compounds on NaV1.2 were based on the methods described by Liu et al. [Liu Y, Beck E J, & Flores C M (2011): Validation of a patch clamp screening protocol that simultaneously measures compound activity in multiple states of the voltage-gated sodium channel Nav1.2. Assay Drug Development Technology 9, 628-634]. For these electrophysiology assays, a cell line (Chinese Hamster Ovarian K-1 cells (CHO K-1)) engineered to stably express human sodium channel NaV1.2 was purchased from Millipore Corporation (catalog no. CYL3023). The electrophysiology measurements were performed using automated patch-clamp methods on a Q-Patch HTX instrument by scientists at Evotec AG under contract with Sunovion.
The solutions utilized for the Qpatch experiments were similar buffered solutions to those described by Liu et al. [Liu Y, Beck E J, & Flores C M (2011)]. The extracellular solution contained 140 millimolar sodium chloride, 4 millimolar potassium chloride, 2 millimolar calcium chloride, 1 millimolar magnesium chloride, 10 millimolar 4-(2-hydroxyethyl)-1-piperazineethanesulfonic acid (HEPES), and 10 millimolar glucose (pH adjusted to 7.4 with sodium hydroxide). The intracellular solution contained 100 millimolar cesium fluoride, 45 millimolar cesium chloride, 10 millimolar HEPES, 5 millimolar ethylene glycol tetraacetic acid (EGTA), and 5 millimolar glucose (pH adjusted to 7.2 with cesium hydroxide).
The biophysical experiments of Lui et al. [Liu Y, Beck E J, & Flores C M (2011)] were replicated to assess the fast, slow and total inactivation characteristics of the human Nav1.2 channel
Based upon results from studies of the fast, slow and total inactivation characteristics of the human Nav1.2 channel, a voltage protocol involving a sequence of consecutive pulses of current was used to measure channel activity in several states [Liu Y, Beck E J, & Flores C M (2011)]. The monolayer of CHO K-1 cells stably expressing human sodium channel NaV1.2 (hNaV1.2 CHO cells) was maintained in the Qpatch instrument at a potential of −100 millivolts (mV) except when the voltage protocol was being executed. The first pulse in the protocol involved a 100 millisecond depolarization to 0 mV to enable measurement of channel availability in the closed state (state A). The potential was then maintained at −90 mV for 15 milliseconds, followed by a five millisecond period of depolarization to 0 mV to enable measurement of channel availability after partial recovery from fast inactivation (state B). Next, the potential was maintained at −90 mV for 300 milliseconds, followed by ten seconds at −50 mV, 15 milliseconds at −90 mV, and finally another five millisecond period of depolarization to 0 mV to enable measurement of channel availability after additional recovery from fast inactivation and significant entry into the slow inactivated state (state C). Finally, after an additional 300 millisecond period at −90 mV, another five millisecond period of depolarization to 0 mV was employed to enable measurement of channel availability after partial recovery from the slow inactivated state (state D). Measurements of activity at state C were used to assess the activity of the NaV1.2 channel in the slow inactivated state. Comparison of activity after addition of test compounds or reference compounds with activity after addition of vehicle only provided a measure of percent remaining activity from which percent inhibition was calculated. […] A slight modification of this protocol was utilized to provide measurements as a function of compound concentration, which enabled IC50 values to be determined. IC50 values were calculated by non-linear least squares regression of the data (percent inhibition of ion channel NaV1.2 activity in the slow inactivated state) onto equation (1): % inhibition=100%/(1+(IC50/[compound]) equation (1)
J Pharmacol Exp Ther. 2008 July; 326(1):89-99.].

Test [2] addresses T1, recombinant human serotonin receptor 5-HT2A (Homo sapiens, UniProt P28223).
T1 construct: expressed in transfected cells; method B: loaded with Ca2+ dye
Description: 5-HT2A antagonist Ca2+ assay in CHO-K1 cells (method A aequorin luminescence / method B FLIPR fluorescence). The class given is cell-based. The note with it: antagonist mode vs EC80 of reference agonist, method A or B, read-out: 5HT2A IC50. A digest of the protocol: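 IC50 was obtained by nonlinear regression of percent inhibition of the EC80 agonist Ca2+ response in CHO-K1 cells stably expressing human 5-HT2A. The readout was aequorin luminescence with agonist injected 15 min after compound (A), or Ca2+-dye fluorescence on FLIPR with serotonin as agonist (B).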

Setting [3] is: hNaV1.2 CHO cells, slow inactivated state, read-out: NaV1.2 IC50.
[4] abbreviates: hNaV1.2 CHO cells, slow inactivated state.
The mark [5] stands for this setting: Test 1, read-out: IC50 (μM) for NaV1.2 slow inactivated state, Test 1.
Setting [6] is: Test 2, read-out: IC50 (μM) for NaV1.2 slow inactivated state, Test 2.
The mark [7] stands for this setting: Test 3, read-out: IC50 (μM) for NaV1.2 slow inactivated state, Test 3.

pIC50: −log10 of the molar value. Where two headings read alike, the source gives them in different places.

T1 sequence (P28223 whole entry): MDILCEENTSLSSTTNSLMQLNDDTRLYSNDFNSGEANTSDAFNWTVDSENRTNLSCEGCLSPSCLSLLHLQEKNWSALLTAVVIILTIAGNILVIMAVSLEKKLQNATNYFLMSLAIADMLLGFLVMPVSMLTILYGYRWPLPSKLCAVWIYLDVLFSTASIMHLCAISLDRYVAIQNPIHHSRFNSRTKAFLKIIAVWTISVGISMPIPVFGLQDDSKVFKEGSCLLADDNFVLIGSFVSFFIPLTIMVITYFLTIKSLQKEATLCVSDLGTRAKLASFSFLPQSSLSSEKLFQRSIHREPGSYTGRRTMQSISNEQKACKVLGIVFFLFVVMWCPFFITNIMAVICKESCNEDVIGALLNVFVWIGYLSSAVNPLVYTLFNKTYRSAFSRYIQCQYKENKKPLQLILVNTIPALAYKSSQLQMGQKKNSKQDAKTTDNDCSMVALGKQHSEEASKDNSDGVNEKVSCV
human sodium channel NaV1.2, sequence (Q99250 whole entry): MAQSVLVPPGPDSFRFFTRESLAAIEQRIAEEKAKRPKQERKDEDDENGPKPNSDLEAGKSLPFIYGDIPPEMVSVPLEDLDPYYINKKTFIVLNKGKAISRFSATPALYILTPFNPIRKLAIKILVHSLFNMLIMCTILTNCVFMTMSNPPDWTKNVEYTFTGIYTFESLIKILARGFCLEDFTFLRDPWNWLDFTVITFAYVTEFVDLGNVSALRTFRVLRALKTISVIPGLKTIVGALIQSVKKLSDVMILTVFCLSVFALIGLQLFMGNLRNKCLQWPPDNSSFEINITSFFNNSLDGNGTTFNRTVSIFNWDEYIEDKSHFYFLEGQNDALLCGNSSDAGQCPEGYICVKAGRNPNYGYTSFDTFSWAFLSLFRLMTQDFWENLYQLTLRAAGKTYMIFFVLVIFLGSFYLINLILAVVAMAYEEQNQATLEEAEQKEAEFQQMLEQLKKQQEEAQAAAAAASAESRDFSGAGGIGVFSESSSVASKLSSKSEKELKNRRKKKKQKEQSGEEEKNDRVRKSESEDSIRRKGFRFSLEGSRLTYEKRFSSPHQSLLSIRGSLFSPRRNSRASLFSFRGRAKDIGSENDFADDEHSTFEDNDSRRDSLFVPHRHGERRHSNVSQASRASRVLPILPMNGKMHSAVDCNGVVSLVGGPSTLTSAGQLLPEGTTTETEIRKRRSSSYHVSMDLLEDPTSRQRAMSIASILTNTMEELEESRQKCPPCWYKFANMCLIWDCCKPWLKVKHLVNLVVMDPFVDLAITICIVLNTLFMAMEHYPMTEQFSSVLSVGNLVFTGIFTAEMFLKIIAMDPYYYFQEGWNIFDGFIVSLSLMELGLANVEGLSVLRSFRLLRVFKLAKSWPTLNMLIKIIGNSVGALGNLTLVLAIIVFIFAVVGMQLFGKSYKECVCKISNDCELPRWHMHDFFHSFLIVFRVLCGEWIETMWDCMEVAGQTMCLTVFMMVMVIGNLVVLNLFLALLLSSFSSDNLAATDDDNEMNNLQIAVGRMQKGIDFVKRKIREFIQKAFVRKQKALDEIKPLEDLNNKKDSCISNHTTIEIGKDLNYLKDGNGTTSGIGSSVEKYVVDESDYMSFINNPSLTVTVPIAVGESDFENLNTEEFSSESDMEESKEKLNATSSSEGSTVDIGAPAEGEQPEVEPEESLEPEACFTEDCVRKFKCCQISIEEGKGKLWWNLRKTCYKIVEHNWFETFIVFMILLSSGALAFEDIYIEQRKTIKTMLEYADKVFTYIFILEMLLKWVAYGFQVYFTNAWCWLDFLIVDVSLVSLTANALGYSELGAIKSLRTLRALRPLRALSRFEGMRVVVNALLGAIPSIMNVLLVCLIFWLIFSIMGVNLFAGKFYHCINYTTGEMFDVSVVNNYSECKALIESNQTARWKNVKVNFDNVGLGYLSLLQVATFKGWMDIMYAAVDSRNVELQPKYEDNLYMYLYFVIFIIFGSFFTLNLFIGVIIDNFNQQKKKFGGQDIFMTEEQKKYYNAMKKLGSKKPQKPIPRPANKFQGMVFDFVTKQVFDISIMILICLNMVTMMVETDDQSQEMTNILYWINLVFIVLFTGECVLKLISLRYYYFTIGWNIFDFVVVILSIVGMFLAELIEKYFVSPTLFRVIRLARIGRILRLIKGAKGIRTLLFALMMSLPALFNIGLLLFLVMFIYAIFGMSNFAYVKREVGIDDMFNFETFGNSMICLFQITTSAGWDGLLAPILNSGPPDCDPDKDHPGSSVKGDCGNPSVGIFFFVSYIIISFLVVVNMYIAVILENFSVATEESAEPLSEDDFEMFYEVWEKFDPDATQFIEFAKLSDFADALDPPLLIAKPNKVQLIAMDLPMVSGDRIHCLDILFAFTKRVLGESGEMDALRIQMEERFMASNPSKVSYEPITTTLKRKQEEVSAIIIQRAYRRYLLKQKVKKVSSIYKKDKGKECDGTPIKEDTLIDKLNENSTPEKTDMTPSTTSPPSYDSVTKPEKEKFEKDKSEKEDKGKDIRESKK

On to `COc1ccccc1O[C@@H]1CCN(CC2Cc3ccccc3C2)[C@@H](C)C1` [Example 142, (2S,4R)-1-((2,3-dihydro-1H-inden-2-yl)methyl)-4-(2-methoxyphenoxy)-2-methylpiperidine], for which the figures for the pIC50 in test [1] (setting [3]) and in test [2] were 6.04 and 6.52, respectively. The like results for `COc1ccccc1O[C@@H]1CCN(CC2Cc3ccccc3C2)[C@H](C)C1` [Example 140, (2R,4R)-1-((2,3-dihydro-1H-inden-2-yl)methyl)-4-(2-methoxyphenoxy)-2-methylpiperidine] were, in that order, 6.29 and 6.20. The like results for `Fc1ccc(O[C@H]2CCN(CC3COCc4ccccc43)C2)cc1` (stereo partly drawn) [Example 12, (3S)-3-(4-fluorophenoxy)-1-(isochroman-4-ylmethyl)pyrrolidine] were, in that order, 5.49 and 6.52.

As for `c1ccc2c(c1)COC1(CCN(CC3CCc4ccccc43)CC1)C2` (centres unmarked) [Example 443, l′-((2,3-dihydro-1H-inden-1-yl)methyl)spiro[isochromane-3,4′-piperidine]], the pIC50 in test [1] (setting [3]) is 5.47; in test [2] it was 6.66. For the compound `Fc1ccc(OC2CCN(CCC3CCc4ccncc43)CC2)cc1` (centres unmarked) [Example 174, 7-(2-(4-(4-fluorophenoxy)piperidin-1-yl)ethyl)-6,7-dihydro-5H-cyclopenta[c]pyridine], the inhibition at 1 µM in test [1] (setting [4]) is 12%. In addition, in test [2], the pIC50 was 8.00.

For `c1ccc([C@@H]2COC3(CCN(C[C@@H]4CCc5ccccc54)CC3)C2)cc1` (single isomer, unassigned) [Compound 376], the pIC50 is 6.29 in test [1] (setting [3]) and 7.70 in test [2]. In the case of `OC(CO[C@@H]1CCc2ccccc21)CN1CC[C@@H](Oc2cccc(F)c2)C1` (stereo partly drawn) [Example 36, 1-(((R)-2,3-dihydro-1H-inden-1-yl)oxy)-3-((R)-3-(3-fluorophenoxy)pyrrolidin-1-yl)propan-2-ol], the pIC50 in test [1] (setting [3]) is 6.60; in test [2], 5.75. Consider `c1ccc2c(c1)CCC1(CN(CC3CCc4ccccc43)C1)O2` (centres unmarked) [Example 385, 1-((2,3-dihydro-1H-inden-1-yl)methyl)spiro[azetidine-3,2′-chromane]], for which, in test [1] (setting [4]), the inhibition at 1 µM was 16%. In addition, the pIC50 in test [2] was 6.27. `COc1cccc(OC2CCN(CCN3CCCc4ccccc4C3=O)CC2)c1` [Example 205, 2-(2-(4-(3-methoxyphenoxy)piperidin-1-yl)ethyl)-2,3,4,5-tetrahydro-1H-benzo[c]azepin-1-one]: the inhibition at 10 µM in test [1] (setting [4]) worked out at 76%. The pIC50 in test [2] is 6.35. In the case of `OC(COc1ccccc1)CN1CCC2(CC1)Cc1ccccc1O2` (centres unmarked) [Example 399, 1-phenoxy-3-(3H-spiro[benzofuran-2,4′-piperidin]-1′-yl)propan-2-ol], the inhibition at 10 µM in test [1] (setting [4]) was found to be 92%. Moreover, the pIC50 in test [2] is 5.74. Take `OC(COC1CCCCC1)CN1CCCC2(CCN(c3ccccc3)C2)C1` (centres unmarked) [Example 356, 1-(cyclohexyloxy)-3-(2-phenyl-2,7-diazaspiro[4.5]decan-7-yl)propan-2-ol]: the results for the negative logarithm of the IC50 (pIC50) in test [1] (setting [3]) and in test [2] were 6.21 and 6.60, respectively. Consider `O=C1c2ccccc2CCN1CCN1CCCC(Oc2ccc(F)cc2)CC1` (centres unmarked) [Example 274, 2-(2-(4-(4-fluorophenoxy)azepan-1-yl)ethyl)-3,4-dihydroisoquinolin-1(2H)-one], for which the inhibition at 1 µM in test [1] (setting [4]) is 27%. Further, the pIC50 in test [2] was 6.72. The matching figures for `Fc1ccc(OC2CCN(CCC3COc4cccnc43)CC2)cc1` (centres unmarked) [Example 177, 3-(2-(4-(4-fluorophenoxy)piperidin-1-yl)ethyl)-2,3-dihydrofuro[3,2-b] pyridine]: 34% and 8.00.

Regarding `COc1ccccc1O[C@@H]1CCN(CC2Cc3ccccc3C2)C[C@@H]1C` [Example 144, (3S,4R)-1-((2,3-dihydro-1H-inden-2-yl)methyl)-4-(2-methoxyphenoxy)-3-methylpiperidine], the pIC50 in test [1] (setting [3]) is 6.27; in test [2], 6.57. With `COc1ccc2c(c1)C(CN1CC[C@@H](Oc3ccccc3OC)C[C@@H]1C)CC2` (stereo partly drawn) [Example 102, (2S,4R)-1-((6-methoxy-2,3-dihydro-1H-inden-1-yl)methyl)-4-(2-methoxyphenoxy)-2-methylpiperidine], in test [1] (setting [4]), the inhibition at 1 µM worked out at 82%. Further, in test [2], the pIC50 was 6.82. The like results for `N#Cc1ccccc1OC1CCN(CC2CCOc3ccccc32)CC1` (centres unmarked) [Example 161, 2-((1-(chroman-4-ylmethyl)piperidin-4-yl)oxy)benzonitrile] were, in that order, 12% and 7.30. For the compound `Fc1ccc(OC2CCN(CCC3CCOc4ccccc43)CC2)cc1` (centres unmarked) [Example 183, 1-(2-(chroman-4-yl)ethyl)-4-(4-fluorophenoxy)piperidine], the figures for the negative logarithm of the IC50 (pIC50) in test [1] (setting [3]) and in test [2] were 5.80 and 7.40, respectively. The like results for `Cc1cccc(N2CCN(CC3(O)COCc4ccccc43)CC2)c1C` (centres unmarked) [Example 56, 4-((4-(2,3-dimethylphenyl)piperazin-1-yl)methyl)isochroman-4-ol] were, in that order, 6.37 and 6.89. The matching figures for `Nc1ccc2c(c1)C(CN1CCC(Oc3ccc(F)cc3)CC1)CC2` (centres unmarked) [Example 115, 3-((4-(4-fluorophenoxy)piperidin-1-yl)methyl)-2,3-dihydro-1H-inden-5-amine]: 5.59 and more than 9.00. Regarding `CC(C1CCc2ccccc21)N1CCC(Oc2ccc(F)cc2)CC1` (centres unmarked) [Example 123, 1-(1-(2,3-dihydro-1H-inden-1-yl)ethyl)-4-(4-fluorophenoxy)piperidine], the inhibition at 1 µM in test [1] (setting [4]) was found to be 71%. The pIC50 in test [2] was 6.36.

For `CN1CCN(c2ncc(-c3cc(Cl)cc(Cl)c3Cl)c(N)n2)CC1` [sipatrigine], the IC50 in test [1] (setting [5]) amounted to 1.6 µM; in test [1] (setting [6]), 2.8 µM; in test [1] (setting [7]), 0.6 µM; in test [1] (Test 4, read-out: IC50 (μM) for NaV1.2 slow inactivated state, Test 4) it was 0.5 µM. Turning to `COC[C@@H](NC(C)=O)C(=O)NCc1ccccc1` [lacosamide, reference compound], the pIC50 in test [1] is 4.19.

As to `c1ccc(CCN2CCC3(CCc4ccccc4O3)CC2)cc1` [Example 427, l′-phenethylspiro[chromane-2,4′-piperidine]], in test [1] (setting [4]), the inhibition at 10 µM is 81%.

On to `COc1ccc2c(c1)C(CN1CCN(c3ccccc3)CC1)CC2` (centres unmarked) [Example 54, 1-((6-methoxy-2,3-dihydro-1H-inden-1-yl)methyl)-4-phenylpiperazine], for which the pIC50 in test [1] (setting [3]) is 5.58. With `Nc1nnc(-c2cccc(Cl)c2Cl)c(N)n1` [lamotrigine, reference compound], the concentration for half-maximal inhibition (IC50) in test [1] (setting [5]) is 34 µM; in test [1] (setting [6]), 33 µM; in test [1] (setting [7]), 25 µM. With `NC(=O)N1c2ccccc2C=Cc2ccccc21` [carbamazepine, reference compound], the IC50 in test [1] (setting [5]) is 19 µM; in test [1] (setting [6]), 22 µM. In the case of `COc1ccc2c(c1)C(C)(CN1CCC(Oc3ccccc3OC)CC1)CC2` (centres unmarked) [Example 97, 1-((6-methoxy-1-methyl-2,3-dihydro-1H-inden-1-yl)methyl)-4-(2-methoxyphenoxy)piperidine], the pIC50 in test [1] (setting [3]) is 7.10.
